This is an account of results in patent US20240262835A1, “PRMT5 INHIBITING COMPOUNDS AND USES THEREOF” (ANTENGENE DISCOVERY LIMITED, priority 2023, published 2024).

SMILES strings stand for the structures. Read-outs that look alike come from different tables or passages of the source. Some results are limits rather than exact numbers.

For orientation: half-life means the time needed for the level to fall by half in the phase considered. One may read the IC50 as the concentration that inhibits the measured activity by half.

Data set [1] in a line: Liver microsome metabolic stability (LMS) assay, mouse. Particulars: for T1/2 of LMS, M: mouse liver microsome 0.5 mg protein/mL, 1 μM, NADPH.
The target in the next data set is PRMT5/MEP50 (Homo sapiens (Human), UniProt O14744). Put plainly: MTase-Glo methyl transferase assay (PRMT5 inhibition). Type of data set: biochemical. Particulars: 50 nM PRMT5/MEP50, 25 μM SAM, 5 μM Histone H4 peptide (1-21), read-out: IC50 for PRMT5 inhibiting. As to the method: The PRMT5 inhibitory activity of test compounds was determined using the MTase-Glo™ assay (Promega), which monitors the product (S-adenosyl homocysteine or SAH) of methyltransferase reactions. The PRMT5 MTase-Glo assays were conducted in a 384-well white ProxiPlate (PerkinElmer, catalog no.: 6008280) in a total volume of 12 μL. The PRMT5 enzymatic reaction (in 4 μL) contained 50 nM PRMT5/MEP50 (Reaction Biology Corp, catalog no.: HMT-22-148), 25 μM S-adenosyl methionine (SAM, Promega), 5 μM Histone H4 peptide (1-21) (BPS Bioscience, catalog no.: 52018-2) and five-fold serially diluted compounds in a reaction buffer of 50 mM Tris (pH 8.0), 50 mM NaCl, 0.01% Tween 20, 0.01% BSA, and 1 mM DTT. The test compounds were pre-incubated with PRMT5/MEP50 and Histone H4 peptide for 20 minutes at room temperature before the addition of SAM to initiate the PRMT5 reaction. The reaction was allowed to proceed for 1 hour at 37° C. and was terminated by 2 μL of 3× MTase-Glo™ Reagent (Promega) and 150 μM EPZ015666 (Selleck, catalog no.: 1616391-65-1). After a 30-minute incubation at room temperature, 6 μL of MTase-Glo™ Detection Solution (Promega) was added and the plate was incubated at room temperature for an additional 30 minutes. The light signal corresponding to the amount of SAH produced by the PRMT5 reaction was subsequently measured using an Envision multimode reader (PerkinElmer). IC50 and Ki values were obtained by analyzing dose-response curves using GraphPad Prism.
PRMT5/MEP50, sequence (O14744 whole entry): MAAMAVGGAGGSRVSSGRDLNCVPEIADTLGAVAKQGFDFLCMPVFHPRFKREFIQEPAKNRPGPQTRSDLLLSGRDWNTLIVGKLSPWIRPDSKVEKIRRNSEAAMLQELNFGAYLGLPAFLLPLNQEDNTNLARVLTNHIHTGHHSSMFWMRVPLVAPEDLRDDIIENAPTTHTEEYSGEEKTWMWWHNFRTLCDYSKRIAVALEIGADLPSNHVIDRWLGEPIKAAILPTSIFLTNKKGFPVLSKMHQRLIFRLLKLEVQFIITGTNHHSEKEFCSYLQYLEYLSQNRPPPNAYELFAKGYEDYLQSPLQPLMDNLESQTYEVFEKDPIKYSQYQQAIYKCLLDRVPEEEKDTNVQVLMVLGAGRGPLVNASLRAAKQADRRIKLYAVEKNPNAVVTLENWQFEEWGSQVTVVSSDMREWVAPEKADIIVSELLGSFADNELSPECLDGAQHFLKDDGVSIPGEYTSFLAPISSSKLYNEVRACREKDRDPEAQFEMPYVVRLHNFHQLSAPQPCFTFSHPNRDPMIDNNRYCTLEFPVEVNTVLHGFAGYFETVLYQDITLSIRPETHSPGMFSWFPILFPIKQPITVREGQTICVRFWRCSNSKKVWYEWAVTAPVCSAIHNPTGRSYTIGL
PRMT5/MEP50, sequence (Q9BQA1 whole entry partner): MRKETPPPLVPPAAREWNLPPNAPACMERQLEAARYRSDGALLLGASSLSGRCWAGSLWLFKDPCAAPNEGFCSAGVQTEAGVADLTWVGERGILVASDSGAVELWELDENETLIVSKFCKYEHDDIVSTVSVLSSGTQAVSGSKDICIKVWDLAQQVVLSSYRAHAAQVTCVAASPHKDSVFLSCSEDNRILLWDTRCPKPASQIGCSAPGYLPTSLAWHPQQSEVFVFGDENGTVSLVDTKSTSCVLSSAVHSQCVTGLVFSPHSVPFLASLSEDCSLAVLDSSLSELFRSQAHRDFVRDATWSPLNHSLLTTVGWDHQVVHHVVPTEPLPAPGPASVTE

The target in data set [2] is hERG potassium ion channel (Homo sapiens (Human), UniProt Q12809). Put plainly: hERG potassium ion channel inhibition assay (automated patch-clamp, CHO-hERG cells). The format is cell-based. Particulars: Qpatch, highest test concentration 40.00 μM. As to the method: Drug-hERG interaction was measured by automated patch-clamp methods, with cisapride as positive control.
hERG potassium ion channel, sequence (Q12809 whole entry): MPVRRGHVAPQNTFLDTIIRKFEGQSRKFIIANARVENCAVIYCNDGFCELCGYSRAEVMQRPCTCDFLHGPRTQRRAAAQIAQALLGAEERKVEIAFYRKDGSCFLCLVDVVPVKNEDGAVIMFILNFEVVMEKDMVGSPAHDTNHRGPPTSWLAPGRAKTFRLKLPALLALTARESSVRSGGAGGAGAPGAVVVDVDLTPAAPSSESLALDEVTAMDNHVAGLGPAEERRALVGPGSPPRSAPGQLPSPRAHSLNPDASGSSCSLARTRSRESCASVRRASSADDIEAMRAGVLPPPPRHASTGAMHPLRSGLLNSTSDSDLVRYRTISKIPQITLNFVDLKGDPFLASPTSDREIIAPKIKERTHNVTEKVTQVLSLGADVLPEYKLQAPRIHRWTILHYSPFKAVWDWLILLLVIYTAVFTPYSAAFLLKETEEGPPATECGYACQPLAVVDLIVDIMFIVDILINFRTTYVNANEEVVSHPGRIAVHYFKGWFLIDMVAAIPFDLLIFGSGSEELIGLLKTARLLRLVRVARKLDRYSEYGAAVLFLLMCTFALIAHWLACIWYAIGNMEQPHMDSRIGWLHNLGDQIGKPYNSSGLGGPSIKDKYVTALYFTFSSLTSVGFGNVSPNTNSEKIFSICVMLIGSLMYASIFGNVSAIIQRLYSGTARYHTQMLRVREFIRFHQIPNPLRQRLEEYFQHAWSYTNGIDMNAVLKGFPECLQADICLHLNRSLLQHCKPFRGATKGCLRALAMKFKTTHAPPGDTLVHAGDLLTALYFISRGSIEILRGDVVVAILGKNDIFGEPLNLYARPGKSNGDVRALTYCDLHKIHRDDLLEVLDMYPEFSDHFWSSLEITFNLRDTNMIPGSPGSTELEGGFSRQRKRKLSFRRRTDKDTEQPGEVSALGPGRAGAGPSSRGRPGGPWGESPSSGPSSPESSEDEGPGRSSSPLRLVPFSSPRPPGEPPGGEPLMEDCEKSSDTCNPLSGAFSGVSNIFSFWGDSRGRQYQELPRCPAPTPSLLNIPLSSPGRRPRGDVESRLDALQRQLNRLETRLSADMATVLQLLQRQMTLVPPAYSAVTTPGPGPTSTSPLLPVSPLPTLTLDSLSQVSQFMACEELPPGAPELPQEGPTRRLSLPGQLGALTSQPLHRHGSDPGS
1.1 CHO-hERG cells were cultured in 175 cm^2 culture bottle. After the cell density grew to 60-80%, the culture medium was removed, washed with 7 mL of phosphate buffered saline (PBS), and then digested with 3 mL Detachin.
1.2 After the digestion was complete, 7 mL culture solution was added for neutralization, and then centrifuged, the clear solution was sucked, and 5 mL culture solution was added for re-suspension to ensure the cell density was 2˜5×10^6/mL.
The process of single-cell high-impedance sealing and whole-cell pattern formation was all automatically completed by Qpatch instrument. After obtaining whole-cell recording mode, the cell was pinching at −80 millivolts. Before giving a 5-second +40 millivolt depolarization stimulus, a 50-millisecond pre-voltage of −50 millivolts was given first, and then repolarized to −50 millivolts for 5 seconds. Go back to −80 millivolts. This voltage stimulation was applied every 15 seconds, recorded for 2 minutes, then extracellular fluid was given and recorded for 5 minutes, and then the administration process began. The concentration of test compound was given from the lowest test concentration for 2.5 minutes per test concentration. After continuous administration of all concentrations, the positive control 3 μM cisapride was given. At least 2 cells were tested for each concentration (n≥2).
4.1 The compound mother liquor was diluted with DMSO, and 10 μL compound stock solution was added to 20 μL DMSO solution, which was continuously 3-fold diluted to 6 DMSO-concentrations.
4.2 4 μL of test compounds in 6 DMSO-concentrations were added to 396 μL extracellular solution and were 100-fold diluted to 6 intermediate concentrations. Then, 80 μL of test compounds in 6 intermediate concentrations were added to 320 μL extracellular solution and were 5-fold diluted to the final concentration to be tested.
4.3 The highest test concentration was 40.00 μM, and six test concentrations were 40.00, 13.33, 4.44, 1.48, 0.49, 0.16 μM, respectively.
4.5 Entire dilution process for test compound preparation was performed by Bravo instrument.
The experimental data were analyzed by GraphPad Prism 5.0 software.

The conditions of data set [3]: microsomes; for T1/2 of LMS, C / CLint (mic) C: cynomolgus monkey.
The conditions of data set [4]: microsomes; for T1/2 of LMS, H / CLint (mic) H: human.
Data set [5] concerns human colon cancer cell line HCT116 (WT). The experiment in a line: In vivo efficacy assay, subcutaneous HCT116 WT xenograft. To be noted: 15 mg/kg PO/QD, 21 days, Balb/C nude mice. Also on record: species or system Balb/C nude female mouse. As for the experimental part: (§1) The antitumor effect or MTAP/MTA selectivity of the compounds provided herein in the subcutaneously transplanted Balb/C nude female mouse model of human colon cancer cell line HCT116 (WT and MTAP KO) was tested.
(§2) Cell viability and cell count were determined. Cell count of the suspension was adjusted to 1×10^8 cells/mL and mixed with Matrigel in a 1:1 volume. Each mouse for this study were inoculated subcutaneously in the right front flank region with 5×10^6 tumor cells (0.1 mL) for tumor development.
(§3) The randomization started when the mean tumor size reaches approximately 100-150 mm^3. Mice inoculated with HCT116 WT cells were randomized on day 7. Mice inoculated with HCT116 MTAP KO cells were randomized on day 8. All animals were randomly allocated to 5 study groups, each group consisted of 8 animals. Randomization was performed based on randomized block design.
(§4) Tumor volume was measured twice per week in two dimensions using a caliper, and the volume was expressed in mm^3 using the formula: “V=(L×W×W)/2”, where V is tumor volume, L is tumor length (the longest tumor dimension) and W is tumor width (the longest tumor dimension perpendicular to L).

For data set [6], the system named is human colon cancer cell line HCT116 (MTAP KO). Put plainly: In vivo efficacy assay, subcutaneous HCT116 MTAP KO xenograft. Also on record: species or system Balb/C nude female mouse. To be noted: 15 mg/kg PO/QD, 21 days, Balb/C nude mice. As for the experimental part: as §1, §2, §3, §4
Data set [7] relates to cryopreserved hepatocytes. The experiment in a line: Hepatic metabolic stability (HMS) assay, mouse hepatocytes. Particulars: for T1/2 (hepatocytes) M / CLint (liver) M: mouse hepatocytes; for T1/2 (hepatocytes) M: 1 μM test compound (3 μM positive control); for CLint (liver) M: scaled to liver; for CLint (hep) M: mouse, hepatocytes.
Data set [8] concerns cryopreserved hepatocytes. The experiment in a line: Hepatic metabolic stability (HMS) assay, cynomolgus monkey hepatocytes. To be noted: for T1/2 (hepatocytes) C / CLint (liver) C: cynomolgus monkey hepatocytes; for T1/2 (hepatocytes) C: 1 μM test compound (3 μM positive control); for CLint (liver) C: scaled to liver; for CLint (hep) C: cynomolgus monkey, hepatocytes.
Method: 1) 10 mM test compounds were provided.
(§5) 2) 30 mM positive control stock solutions: Dissolved accurate amount of positive control compounds in dimethyl sulfoxide (DMSO).
(§6) 3) 1000× Stock Solution: Diluted 10 mM test compounds and 30 mM positive control compounds to 1 mM and 3 mM with DMSO in 96-well plates.
(§7) 4) 100× Dosing Solution: Diluted 1 mM test compounds and 3 mM positive control compounds to 100 μM and 300 μM dosing solutions with ACN.
(§8) 5) Preparation of 0.5×10^6/mL cells suspension: cryopreserved cells were thawed, isolated and suspended in Incubation Medium, then diluted with pre-warmed Incubation Medium to 0.5×10^6 cells/mL.
(§9) 6) Add 198 μL of pre-warmed cell suspensions in 96-well plates.
(§10) 7) Preparation of Quenching Plate: Transfer 125 μL of stop solution in a set of pre-labeled 96-well plates.
(§11) 8) Spike 2 μL dosing solution to each well of 96-well plates in duplicate.
(§12) 9) For TO Samples, mix to achieve a homogenous suspension for about 1 min, then immediately transfer 25 μL of each sample into well containing 125 μL of ice-cold stop solution followed by mixing.
(§13) 10) Incubate all plates at 37° C. in a 95% humidified incubator at 5% CO2 to start the reactions with constant shaking.
(§14) 11) At 15, 30, 60 and 90 min, mix samples and then transfer 25 μL of each sample at each time point to well containing 125 μL of ice-cold stop solution followed by mixing.
(§15) 12) Medium Control (MC) sample plates (labeled as TO-MC and T90-MC) are prepared in the same way as cell incubation except that medium was used instead of cell suspension.
(§16) 13) At each corresponding time point, stop the reactions by removing the plates from incubator and mixing with 125 μL of ice-cold stop solution.
(§17) 14) Vortex the plates immediately on a plate shaker at 600 rpm for 10 minutes. Then, centrifuge all sample plates at 3220×g for 20 min at 4° C.
(§18) 15) After centrifugation, 80 μL/well of supernatant in the sample plates are transferred to another set of pre-labeled 96-well plates which containing 240 μL of ultra pure water according to the plate map.
(§19) 16) Analytical plates are sealed and store at 4° C. until LC-MS/MS analysis.
(§20) The remaining percents of test articles after incubation were calculated by the follow equations:
(§21) Use the following equation of first order kinetics to calculate T1/2 and CLint:
The subject of data set [9] is cryopreserved hepatocytes. The experiment in a line: Hepatic metabolic stability (HMS) assay, human hepatocytes. Particulars: for T1/2 (hepatocytes) H / CLint (liver) H: human hepatocytes; for T1/2 (hepatocytes) H: 1 μM test compound (3 μM positive control); for CLint (liver) H: scaled to liver; for CLint (hep) H: human, hepatocytes.
Method: 1) 10 mM test compounds were provided.
as §5, §6, §7, §8, §9, §10, §11, §12, §13, §14, §15, §16, §17, §18, §19, §20, §21

As for `CN(C(=O)c1ccc2nc(N)c3cncn3c2c1)[C@@H]1COc2cc(C(F)(F)F)ccc21` [Compound 12], the half-life at 1 μM in data set [1] (mouse, liver microsomes) is 1.14 h. The IC50 at PRMT5/MEP50 amounted to 26 nM; in data set [2], 5380 nM.

On to `CN(C(=O)c1ccc2nc(N)c3cncn3c2c1)C1COc2cc(C(F)(F)F)ccc21` (stereo not shown) [Compound 17], for which, in [3], the “T1/2 of LMS, C” value was determined as 1.07 h. Further, the figures for the IC50 (on PRMT5/MEP50; in [2]) were 12 nM and 12800 nM, respectively. Besides, the “T1/2 of LMS, H” value in data set [4] is >2.42 h. In addition, in data set [5], the “Tumor growth inhibition (TGI) HCT 116 WT” value is reported as 66%. Further, where the note is “rat, microsomes”, the “T1/2 of LMS, R” value is >2.42 h. The “Tumor growth inhibition (TGI) HCT 116 MTAP KO” value in data set [6] is on record as −11%.

Consider `CN(C(=O)c1cc2c(cn1)nc(N)c1cncn12)C1COc2cc(C(F)(F)F)ccc21` (stereo not shown) [Compound 19], for which, in [3], the “CLint (mic) C” value was <9.6 µL/min/mg; the “T1/2 of LMS, C” value was >2.42 h; the “CLint (liver) C” value is given as <13.0 mL/min/kg. In addition, in [7], the “T1/2 (hepatocytes) M” value amounted to 2.35 h, the “CLint (liver) M” value was found to be 116.7 mL/min/kg and the “CLint (hep) M” value was found to be 9.8 μL/min/10^6. Further, in data set [8], the “T1/2 (hepatocytes) C” value stood at 3.552 h, the “CLint (liver) C” value is listed as 23.4 mL/min/kg and the “CLint (hep) C” value amounted to 6.5 μL/min/10^6. Besides, in [1], the “T1/2 of LMS, M” value amounted to 2 h. Also, on PRMT5/MEP50, the IC50 is 25 nM. Besides, the IC50 in data set [2] was 13500 nM. In data set [9], the “T1/2 (hepatocytes) H” value is >3.613 h, the “CLint (liver) H” value is on record as <17.8 mL/min/kg and the “CLint (hep) H” value is <6.4 μL/min/10^6. In [4], the “CLint (mic) H” value is <9.6 µL/min/mg; the “T1/2 of LMS, H” value is >2.42 h; the “CLint (liver) H” value is listed as <8.6 mL/min/kg. Moreover, in data set [5], the “Tumor growth inhibition (TGI) HCT 116 WT” value stood at 74%. Besides, the “CLint (liver) R” value (microsomes) is listed as <17.3 mL/min/kg. Further, where the note is “rat, microsomes”, the “CLint (mic) R” value is <9.6 µL/min/mg and the “T1/2 of LMS, R” value was >2.42 h. In addition, the “Tumor growth inhibition (TGI) HCT 116 MTAP KO” value in [6] turned out to be 11%.

For the compound `CN(C(=O)c1cc2c(cn1)nc(N)c1cncn12)C1COc2cc(C(F)(F)F)ccc21` (stereo not shown) [Compound 21], in data set [3], the “CLint (mic) C” value was <9.6 µL/min/mg; the “T1/2 of LMS, C” value is >2.42 h; the “CLint (liver) C” value is listed as <13.0 mL/min/kg. Further, in data set [7], the “T1/2 (hepatocytes) M” value was determined as 2.582 h, the “CLint (liver) M” value amounted to 106.3 mL/min/kg and the “CLint (hep) M” value is given as 8.9 μL/min/10^6. Also, in data set [8], the “T1/2 (hepatocytes) C” value is >3.613 h, the “CLint (liver) C” value is recorded as <23 mL/min/kg and the “CLint (hep) C” value was <6.4 μL/min/10^6. Also, the “T1/2 of LMS, M” value in data set [1] came out at 1.82 h. Besides, the IC50 on PRMT5/MEP50 worked out at 25 nM. This compound showed an IC50 in data set [2] of 13600 nM. Also, in data set [9], the “T1/2 (hepatocytes) H” value was >3.613 h, the “CLint (liver) H” value is given as <17.8 mL/min/kg and the “CLint (hep) H” value is listed as <6.4 μL/min/10^6. For the same compound, in data set [4], the “CLint (mic) H” value is <9.6 µL/min/mg; the “T1/2 of LMS, H” value was >2.42 h; the “CLint (liver) H” value is <8.6 mL/min/kg. Moreover, the “Tumor growth inhibition (TGI) HCT 116 WT” value in [5] stood at 59%. Also, the “CLint (liver) R” value (microsomes) is recorded as <17.3 mL/min/kg. In addition, for the setting “rat, microsomes”, the “CLint (mic) R” value is <9.6 µL/min/mg and the “T1/2 of LMS, R” value was >2.42 h. In addition, the “Tumor growth inhibition (TGI) HCT 116 MTAP KO” value in [6] worked out at 11%.

As to `CN(C(=O)c1cc2c(cn1)nc(N)c1cncn12)C1CC(F)(F)c2cc(C(F)(F)F)ccc21` (stereo not shown) [Compound 24], in data set [7], the “T1/2 (hepatocytes) M” value came to 1.27 h, the “CLint (liver) M” value came to 216.4 mL/min/kg and the “CLint (hep) M” value worked out at 18.2 μL/min/10^6. Moreover, in data set [8], the “T1/2 (hepatocytes) C” value stood at 2.193 h, the “CLint (liver) C” value was 37.9 mL/min/kg and the “CLint (hep) C” value was determined as 10.5 μL/min/10^6. Moreover, the “T1/2 of LMS, M” value in [1] is >2.42 h. Besides, the half-inhibitory concentration (IC50) at PRMT5/MEP50 worked out at 14 nM. The same compound yielded an IC50 in [2] of 24800 nM. In data set [9], the “T1/2 (hepatocytes) H” value was >3.613 h, the “CLint (liver) H” value is on record as <17.8 mL/min/kg and the “CLint (hep) H” value is reported as <6.4 μL/min/10^6. In [5], the “Tumor growth inhibition (TGI) HCT 116 WT” value was 62%. For the same compound, the “CLint (mic) R” value (rat liver microsome) is <9.6 µL/min/mg. Under “rat liver microsome 0.5 mg protein/mL, 1 μM, NADPH”, the “T1/2 of LMS, R” value was >2.42 h. The “CLint (liver) R” value (rat liver microsome, scaled to liver) is on record as <17.3 mL/min/kg. Further, the “Tumor growth inhibition (TGI) HCT 116 MTAP KO” value in data set [6] is given as 3%.
